Test [1] concerns the target T1, SIRT1 (Homo sapiens, UniProt Q96EB6).
T1 construct: Plasmids of SIRT1 (full length); made in house
T1 sequence (Q96EB6 1-747): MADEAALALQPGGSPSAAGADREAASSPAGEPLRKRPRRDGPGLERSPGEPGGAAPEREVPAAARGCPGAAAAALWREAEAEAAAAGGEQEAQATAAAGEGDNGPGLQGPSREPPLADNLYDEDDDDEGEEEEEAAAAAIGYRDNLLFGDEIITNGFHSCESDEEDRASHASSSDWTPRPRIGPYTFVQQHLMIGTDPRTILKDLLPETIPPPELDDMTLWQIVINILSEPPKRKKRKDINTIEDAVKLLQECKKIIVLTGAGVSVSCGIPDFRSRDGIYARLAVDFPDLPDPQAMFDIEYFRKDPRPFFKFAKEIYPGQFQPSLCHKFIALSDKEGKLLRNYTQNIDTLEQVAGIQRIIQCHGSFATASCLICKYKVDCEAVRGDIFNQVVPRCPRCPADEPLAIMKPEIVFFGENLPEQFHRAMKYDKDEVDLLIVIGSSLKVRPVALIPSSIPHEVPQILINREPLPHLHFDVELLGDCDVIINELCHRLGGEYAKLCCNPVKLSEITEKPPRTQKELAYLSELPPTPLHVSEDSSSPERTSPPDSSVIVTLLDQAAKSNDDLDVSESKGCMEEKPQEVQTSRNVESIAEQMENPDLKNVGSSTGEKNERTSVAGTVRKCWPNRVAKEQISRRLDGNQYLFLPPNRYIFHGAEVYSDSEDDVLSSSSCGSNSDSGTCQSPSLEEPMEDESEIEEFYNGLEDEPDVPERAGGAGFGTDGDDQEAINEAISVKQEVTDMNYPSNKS
Briefly: Sirtuin inhibition assay (HPLC), SIRT1. Type of test: biochemical. To be noted: substrate p53K382Ac; 500 μM NAD+, 500 μM peptide, 10 μM sirtuin, pH 7.5, 37 °C. The protocol:
Plasmids of SIRT1 (full length), SIRT2 (38-356), SIRT3 (102-399), and SIRT5 (34-302) were generous gifts from Dr. Hening Lin (Cornell University, Ithaca, NY, USA). SIRT6 was a gift from Cheryl Arrowsmith (Addgene plasmid #28271). The proteins were expressed and purified according to previously published protocols. The identity of the protein was confirmed by tryptic digestion followed by LC-MS/MS analysis performed at the Vermont Genetic Network (VGN) Proteomics Facility. Protein concentrations were determined by Bradford assay (Thermo Fisher Scientific, Rockford, IL, USA).
A typical reaction contained 500 μM NAD^+ and 500 μM peptide substrate (H3K9Ac for SIRT2, SIRT3 and SIRT6, p53K382Ac for SIRT1 and SIRT5) of varying concentrations of a small molecule probe in 100 mM phosphate buffer pH 7.5. The reactions were initiated by the addition of 10 μM of sirtuin and were incubated at 37 °C before being quenched by 8 μL of 10% TFA. The incubation time was controlled so that the conversion of substrate was less than 15%. The samples were then injected on an HPLC fitted to a Macherey-Nagel Nucleosil C18 column. NAD^+, NAM and AADPR (acetyl-ADP-ribose) peaks were resolved using a gradient of 0 to 20% methanol in 20 mM ammonium acetate. Chromatograms were analyzed at 260 nm. Reactions were quantified by integrating areas of peaks corresponding to NAD^+ and AADPR. Rates were plotted as a function of small molecule probe concentration, and points were fitted to the following equation:ν(%) = ν0(%) − [ν0(%)(10^x)/(10^x + IC50)](1) where ν(%) represents the turnover rate expressed as percent enzymatic activity remaining, and ν0(%) represents the uninhibited turnover rate expressed as an enzymatic activity of 100%. The variable x represents the log[probe] in nanomolar. IC50 values were derived from this equation.

In test [2] the target is SIRT6 (Homo sapiens, UniProt Q8N6T7). Briefly: Western blot of H3K9Ac in HEK293 cells. Type of test: cell-based. An excerpt: The ABPs structurally mimic acylated lysine substrates. However, the presence of substituents could potentially alter their cell permeability, cellular distribution, and target engagement ability. It is essential to determine if these probes are cell permeable and capable of inhibiting endogenous sirtuin activity. The sirtuin family of proteins are often referred to as the class III histone deacetylases (HDACs). Unlike class I and class II HDACs, which are Zn^2+-dependent, sirtuins are NAD^+-dependent. […] Similarly, other sirtuins may not be the only deacetylase of their endogenous substrates. Therefore, the inhibitory effect of the other ABPs may only become apparent when class I/II HADCs are inhibited at the same time. HEK293 cells were cultured in the presence of probe 2C and/or other HDAC inhibitors. Subsequently, the cell lysates were collected and probed for acetylated H3K9 (H3K9Ac), which is an endogenous substrate of SIRT6.
The cell lysate was resolved on a 10% SDS-PAGE gel and transferred to Immobilon PVDF transfer membrane (Millipore, Burlington, MA, USA). The blot was blocked with 5% nonfat milk, probed with primary antibody targeting H3K9Ac (Sigma-Aldrich, St. Louis, MO, USA), H3 (Abcam, Cambridge, MA, USA), acetyllysine or CPS1 (Cell Signaling Technology, Beverly, MA, USA), washed with PBST, followed by incubation with anti-rabbit or anti-mouse HRP conjugated secondary antibody. Then, the signal was detected by SuperSignal West Pico Chemiluminescent substrate (Thermo Fisher Scientific, Rockford, IL, USA).

In test [3] the target is SIRT6H133Y (Homo sapiens, UniProt Q8N6T7, H133Y). Nature of the test: Labeling of catalytically inactive mutant SIRT6H133Y. The test is classed as biochemical. How it is done: Remarkably, probe 2C was also able to label individual sirtuin isoforms in cell lysates. HEK293 cells overexpressing human SIRT2 were lysed, and the lysate was subjected to the labeling by 10 μM probe 2C.
A typical labeling experiment was performed as follows: in a 0.7 mL Eppendorf tube, purified recombinant human sirtuin (10 μM) was incubated with NAD^+ (500 μM) and activity-based probe at 37 °C for 10 min. The sample was transferred to a clear-bottom 96-well plate, placed on ice, and irradiated at 365 nm with a UV-lamp in a cold room. Subsequently, ingredients of the “click-chemistry” including azide-fluor 545, CuSO4, reducing agent (tris(2-carboxyethyl)phosphine, TCEP) and stabilizing agent (tris[(1-benzyl-1H-1,2,3-triazol-4-yl)methyl]amine, TBTA) were added, and the sample was gently agitated at 250 rpm on a microshaker at room temperature for 30 min. Then, the sample was resolved by SDS-PAGE. To […] the signal to noise ratio, the gel was destained to eliminate non-specific binding of free dyes. This was done in a mixture of methanol/distilled water/acetic acid (v/v/v = 4/5/1) at ambient temperature for 4 h. Then, destained gel was analyzed with in-gel fluorescence scanning using a Biorad ChemiDoc MP imager (excitation 532 nm, 580 nm cut-off filter and 30 nm band-pass). Finally, Coomassie blue staining was applied to provide loading control.

Sequence of SIRT6 (Q8N6T7 whole entry): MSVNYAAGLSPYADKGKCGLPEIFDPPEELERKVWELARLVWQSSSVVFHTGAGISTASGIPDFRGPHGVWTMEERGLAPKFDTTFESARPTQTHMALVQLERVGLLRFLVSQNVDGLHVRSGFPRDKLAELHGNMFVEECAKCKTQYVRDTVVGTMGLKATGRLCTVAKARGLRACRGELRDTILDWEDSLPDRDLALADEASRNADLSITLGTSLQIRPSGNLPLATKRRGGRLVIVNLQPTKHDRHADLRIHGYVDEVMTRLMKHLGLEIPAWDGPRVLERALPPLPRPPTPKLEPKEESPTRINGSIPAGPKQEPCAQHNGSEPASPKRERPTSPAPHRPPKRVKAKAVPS
Sequence of SIRT6H133Y (Q8N6T7 whole entry H133Y, canonical isoform): as the sequence (Q8N6T7 whole entry) above, with H133Y counted along it

The IC50 is the concentration that gives 50% inhibition. Higher therefore signals weaker potency. As for `C#CCCCC1(CCC(=O)N[C@@H](CCCCNC(=S)CCC(=O)O)C(=O)N[C@@H](C)C(=O)N[C@@H](C)C(=O)OC)N=N1` [Probe 2B], the IC50 in test [1] was > 2000 µM.
Take `C#CCCCC1(CCC(=O)N[C@@H](CCCCNC(=S)CCCCCCCCCCCCC)C(=O)N[C@@H](C)C(=O)N[C@@H](C)C(=O)OC)N=N1` [Probe 2C]: the “H3K9Ac level, combination with TSA” value in test [2] (combined with TSA) is “significantly elevated level of H3K9Ac”. The “H3K9Ac level, treatment alone” value in test [2] (single agent) was “did not cause any appreciable changes”. For the same compound, in test [3], the “labeling of SIRT6H133Y” value is listed as “failed to label”.

These data come from publication PMC7792806, “Development of Second Generation Activity-Based Chemical Probes for Sirtuins” (Molecules, 2020).
